# Laboratory results published in patent EP4684782A1, “COSMETIC COMPOSITION FOR ANTIOXIDATION” (LG Chem, Ltd., priority 2023, dated 2025).
# “And” between values parts separate entries of the source, which are not always exact repeats. Identical values can stand only once.
# How the values were obtained:
# [1] = DPPH radical scavenging ability (antioxidant power), absorbance at 520 nm; type: biochemical; settings: for Antioxidant power, Average: average of three measurements, 30 min; for Antioxidant power: single measurements (Once, Two times, Three times), 0.5 mM DPPH, room temperature, 30 minutes
# Procedure: The DPPH radical expresses a dark purple color. The DPPH radical is reduced by the antioxidant effective ingredient, and the dark purple color is discolored. The performance of the antioxidant effective ingredient can be measured using such characteristics.
# The 3HP aqueous solution obtained from Preparation Example 1 was prepared at five different concentrations (0 wt.%, 1 wt.%, 5 wt.%, 10 wt.%, 70 wt.%), 50 µℓ of each 3HP aqueous solution and 150 µℓ of methanol were dispensed into a 96-well plate and reacted at room temperature for 30 minutes. The absorbance (ODcontrol group, wavelength 520 nm) was repeatedly measured three times.
# A DPPH aqueous solution containing 0.5 mM DPPH (free radical, 95%, Alfa Aesar) was prepared. 50 µℓ of methanol and 150 µℓ of the DPPH aqueous solution were dispensed into a 96-well plate and reacted at room temperature for 30 minutes. The absorbance (ODnegative control group, wavelength 520 nm) was repeatedly measured three times.
# A DPPH aqueous solution containing 0.5 mM DPPH (free radical, 95%, Alfa Aesar) was prepared. The 3HP aqueous solution obtained from Preparation Example 1 was prepared at five different concentrations (0 wt.%, 1 wt.%, 5 wt.%, 10 wt.%, 70 wt.%), and 50 µℓ of each 3HP aqueous solution and 150 µℓ of the DPPH aqueous solution were dispensed into a 96-well plate and reacted at room temperature for 30 minutes. The absorbance (ODexperimental group, wavelength 520 nm) was repeatedly measured three times.
# The absorbance at a wavelength of 520 nm was measured using a micro reader.
# The DPPH radical scavenging ability (antioxidant power) of 3HP was calculated according to the following Equation 1, and the results are shown in Tables below. [formula]
# human skin tissues = test: Skin tissue cell stability experiment (explant tissue culture, HE staining); type: cell-based; settings: 3HP applied at concentrations of 1%, 5%, and 10%, tissues obtained 24 hours after application, FIG. 1
# Procedure: The human skin tissues provided for research purposes (IRB No. 4-2023-0054; Institutional Review Board, Severance Medical Center, Yonsei University College of Medicine) was defatted, and washed several times with PBS (phosphate buffered saline; Lonza) to remove residual impurities. The skin tissues were prepared into a size of 1 cm × 1 cm for each test group, and the test composition was applied to the prepared skin tissues, and PBS was applied to the negative control. The skin tissues in which the absorption of the test composition has been completed were cultured in a special medium at 37°C, 5% CO2.
# Tissues obtained 24 hours after application of the test composition were fixed with 10% formalin, and then paraffin blocks and paraffin-embedded slides were prepared. The deparaffinized tissues were stained for nuclei with hematoxylin (S3309; dako) solution, and then washed in running water. The cytoplasm was stained with eosin (318906; sigma) solution, and then the tissues were completely dehydrated through washing process and fixed using a mounting solution. The epidermis and papillary dermis of the fixed tissues were photographed at 400x magnification using an optical microscope (BX43F; OLYMPUS).
compound,measurement,setting,value
"O=C(O)CCO [Example 3HP, 3-hydroxypropionic acid]","Antioxidant power, Average",[1]; 3HP treated concentration 1 %,0.904%
same,Antioxidant power,[1]; 3HP treated concentration 1 %,0.850% and 1.042% and 0.819%
same,"Antioxidant power, Average",[1]; 3HP treated concentration 5%,2.474%
same,Antioxidant power,[1]; 3HP treated concentration 5%,2.452% and 2.552% and 2.419%
same,"Antioxidant power, Average",[1]; 3HP treated concentration 10 %,5.175%
same,Antioxidant power,[1]; 3HP treated concentration 10 %,5.209% and 5.205% and 5.111%
same,"Antioxidant power, Average",[1]; 3HP treated concentration 70 %,21.011%
same,Antioxidant power,[1]; 3HP treated concentration 70 %,20.888% and 21.142% and 21.002%
same,DPPH radical scavenging ability,"[1]; under the treatment concentrations tested (1, 5, 10, 70 wt.%), result in words",significant DPPH radical scavenging ability was exhibited
same,damage to the epidermis and dermis or separation between tissues,human skin tissues,no damage to the epidermis and dermis or separation between tissues were observed
